Test system: 996289-038-R-J1-PDC spheroid viability
Assay: Anticancer human tumor 996289-038-R-J1-PDC patient-derived colon adenocarcinoma cell line growth inhibition [PI3K]
Conditions: spheroids with HUVEC and MSC; for IC50: curve of first compound; for viability, T/C: stronger effect = lower value
Procedure, shortened: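 Combination activity was assessed by viability in multicellular tumor spheroids carrying HUVEC and MSC components. Agents were tested with PI3K inhibitors from a Cmax-based top dose (or 10 microM) downward in half-log increments.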

[1] = second compound 0.00316 µM, first compound 0.0316 µM
[2] = second compound 0.00316 µM, first compound 0.1 µM
[3] = second compound 0.00316 µM, first compound 0.316 µM
[4] = second compound 0.00316 µM, first compound 1 µM
[5] = second compound 0.00316 µM, first compound 3.16 µM
[6] = second compound 0.00316 µM, first compound 10 µM
[7] = second compound 0.01 µM, first compound 0.0316 µM
[8] = second compound 0.01 µM, first compound 0.1 µM
[9] = second compound 0.01 µM, first compound 0.316 µM
[10] = second compound 0.01 µM, first compound 1 µM
[11] = second compound 0.01 µM, first compound 3.16 µM
[12] = second compound 0.01 µM, first compound 10 µM
[13] = second compound 0.0316 µM, first compound 0.0316 µM
[14] = second compound 0.0316 µM, first compound 0.1 µM
[15] = second compound 0.0316 µM, first compound 0.316 µM
[16] = second compound 0.0316 µM, first compound 1 µM
[17] = second compound 0.0316 µM, first compound 3.16 µM
[18] = second compound 0.0316 µM, first compound 10 µM
[19] = second compound 0.1 µM, first compound 0.0316 µM
[20] = second compound 0.1 µM, first compound 0.1 µM
[21] = second compound 0.1 µM, first compound 0.316 µM
[22] = second compound 0.1 µM, first compound 1 µM
[23] = second compound 0.1 µM, first compound 3.16 µM
[24] = second compound 0.1 µM, first compound 10 µM
[25] = second compound 0.316 µM, first compound 0.0316 µM
[26] = second compound 0.316 µM, first compound 0.1 µM
[27] = second compound 0.316 µM, first compound 0.316 µM
[28] = second compound 0.316 µM, first compound 1 µM
[29] = second compound 0.316 µM, first compound 3.16 µM
[30] = second compound 0.316 µM, first compound 10 µM
[31] = second compound 1 µM, first compound 0.0316 µM
[32] = second compound 1 µM, first compound 0.1 µM
[33] = second compound 1 µM, first compound 0.316 µM
[34] = second compound 1 µM, first compound 1 µM
[35] = second compound 1 µM, first compound 3.16 µM
[36] = second compound 1 µM, first compound 10 µM
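Also: spheroids exposed to compounds for seven days before viability read.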
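For viability, T/C in this document: luminescence used as a proxy for viable cell amount; percent viability relative to DMSO vehicle control as 100%.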

Compound `Cn1nccc1Nc1nccc(-c2ccn(C(CO)c3ccc(Cl)c(F)c3)c(=O)c2)n1` (centres undefined) + CC(Nc1ccc2c(c1)OCCn1cc(N3C(=O)OCC3C(F)F)nc1-2)C(N)=O has an IC50 (second compound 0.00316 µM) of over 10 µM, an IC50 (second compound 0.01 µM) of over 10 µM and an IC50 (second compound 0.0316 µM) of 9.77 µM. The IC50 (second compound 0.1 µM) was 9.01 µM, the IC50 (second compound 0.316 µM) was 4.82 µM and the IC50 (second compound 1 µM) was 2.25 µM. For the same compound, the viability, T/C [1] was 104%, the viability, T/C [2] was 98% and the viability, T/C [3] was 117%. It also gave a viability, T/C [4] of 106%, a viability, T/C [5] of 94.4% and a viability, T/C [6] of 58.4%. It also gave a viability, T/C [7] of 104%, a viability, T/C [8] of 95.3% and a viability, T/C [9] of 105%. It also gave a viability, T/C [10] of 103%, a viability, T/C [11] of 70.8% and a viability, T/C [12] of 53.4%. For the same compound, the viability, T/C [13] was 98.9%, the viability, T/C [14] was 110% and the viability, T/C [15] was 86.8%. It also gave a viability, T/C [16] of 93.6%, a viability, T/C [17] of 67.8% and a viability, T/C [18] of 50%. The viability, T/C [19] was 87.9%, the viability, T/C [20] was 89.6% and the viability, T/C [21] was 97.2%. It also gave a viability, T/C [22] of 81%, a viability, T/C [23] of 78.7% and a viability, T/C [24] of 46.8%. For the same compound, the viability, T/C [25] was 79.5%, the viability, T/C [26] was 74.5% and the viability, T/C [27] was 61.4%. For the same compound, the viability, T/C [28] was 67.6%, the viability, T/C [29] was 58.2% and the viability, T/C [30] was 39.5%. The viability, T/C [31] was 56.2%, the viability, T/C [32] was 64.4% and the viability, T/C [33] was 53.7%. For the same compound, the viability, T/C [34] was 73.3%, the viability, T/C [35] was 45% and the viability, T/C [36] was 30.2%.
For `C=CC(=O)N1CCN(c2nc(=O)n(-c3c(C)ccnc3C(C)C)c3nc(-c4c(O)cccc4F)c(F)cc23)C(C)C1` (centres undefined) + CC(Nc1ccc2c(c1)OCCn1cc(N3C(=O)OCC3C(F)F)nc1-2)C(N)=O, the IC50 (second compound 0.00316 µM) was over 10 µM, the IC50 (second compound 0.01 µM) was over 10 µM and the IC50 (second compound 0.0316 µM) was over 10 µM. It also gave an IC50 (second compound 0.1 µM) of over 10 µM, an IC50 (second compound 0.316 µM) of over 10 µM and an IC50 (second compound 1 µM) of over 10 µM. For the same compound, the viability, T/C [1] was 91.2%, the viability, T/C [2] was 92.7% and the viability, T/C [3] was 106%. It also gave a viability, T/C [4] of 112%, a viability, T/C [5] of 113% and a viability, T/C [6] of 106%. For the same compound, the viability, T/C [7] was 97.8%, the viability, T/C [8] was 96.7% and the viability, T/C [9] was 112%. The viability, T/C [10] was 100%, the viability, T/C [11] was 118% and the viability, T/C [12] was 118%. For the same compound, the viability, T/C [13] was 88.7%, the viability, T/C [14] was 106% and the viability, T/C [15] was 95.3%. The viability, T/C [16] was 105%, the viability, T/C [17] was 97.3% and the viability, T/C [18] was 98.8%. It also gave a viability, T/C [19] of 87.5%, a viability, T/C [20] of 81.9% and a viability, T/C [21] of 87.8%. For the same compound, the viability, T/C [22] was 98.9%, the viability, T/C [23] was 85.4% and the viability, T/C [24] was 83%. It also gave a viability, T/C [25] of 79.4%, a viability, T/C [26] of 67.7% and a viability, T/C [27] of 75.1%. It also gave a viability, T/C [28] of 80.9%, a viability, T/C [29] of 77.1% and a viability, T/C [30] of 77.7%. For the same compound, the viability, T/C [31] was 82.2%, the viability, T/C [32] was 50.2% and the viability, T/C [33] was 60.2%. The viability, T/C [34] was 59.1%, the viability, T/C [35] was 62.6% and the viability, T/C [36] was 67.7%.

— PubChem BioAssay AID1963965 (Molecular Pharmacology Branch, DTP, NCI, 2024)
